Laboratory results as given in paper PMC10541456, “A phase I, single‐center, open‐label study to investigate the absorption, distribution, metabolism and excretion of encorafenib following a single oral dose of 100 mg [ ^14C] encorafenib in healthy male subjects” (Pharmacology Research & Perspectives, 2023).
Several values for one entry are separate records, joined by “and”; a condition that tells them apart may be missing. Identical values can stand only once.

Columns and labels:
[1] = Total radioactivity PK in plasma; format: in vivo, human
Procedure: Venous blood samples (18 mL/time point) were collected by either direct venipuncture or from an indwelling cannula inserted into a vein of the forearm into tubes containing potassium ethylene diamine tetra acetic acid (K2‐EDTA) at the following times for metabolite characterization, total radioactivity and parent drug analysis: Pre‐dose, 0.5, 1, 1.5, 2, 3, 4, 6, 8, 12, 24, 48, 72, 96, 120 and 144 h post‐dose. Urine samples were collected into pre‐weighed, uniquely labeled containers pre‐dose (before drug administration) and at the following intervals: 0–4, 4–8, 8–24, 24–48, 48–72, 72–96, 96–120 and 120–144 h post‐dose. Feces samples were collected quantitatively into uniquely labeled, polypropylene containers pre‐dose (before drug administration) and individually until 144 h post‐dose. Urine and feces samples were frozen at −20°C and blood samples at −70°C.
Analysis of total radioactivity data in plasma, blood, feces, and urine was performed by Covance Laboratories Inc. All sample combustions were performed in a Model 307 Sample Oxidizer (Packard Instrument Company) and the resulting ^14CO2 was trapped in a mixture of Perma Fluor™ (Perkin Elmer) and Carbo Sorb® (Perkin Elmer). Oxidation efficiency was evaluated on each day of sample combustion by analyzing a commercial radiolabeled standard both directly in a scintillation cocktail and by oxidation. […] EcoLite™(+) scintillation cocktail was used for samples analyzed directly. All samples were analyzed for radioactivity in Model 2900TR or 2910TR liquid scintillation counters (Packard Instrument Company) for at least 5 min or 100 000 counts. Each sample was homogenized or mixed before radioanalysis (unless the entire sample was used for analysis). All samples were analyzed in duplicate or triplicate, as applicable, if sample size allowed. If results from sample replicates (calculated as ^14C disintegrations per minute (dpm)/g sample) differed by more than 10% from the mean value and sample aliquots had radioactivity greater than 200 dpm, the sample was re‐homogenized or remixed and reanalyzed (if the sample size permitted).
Blood samples were mixed and duplicate aliquots of each (approximately 0.4 g) were combusted and analyzed by liquid scintillation […]. Plasma and urine samples were separately mixed and duplicate weighed aliquots of each (approximately 0.4 g for plasma and 0.2 g for urine) were analyzed directly by LSC. Urine volumes provided by the Covance clinical research unit were entered as a weight assuming a specific gravity of 1 g/mL. Feces samples were analyzed individually (samples were not combined by interval) and the weight of each individual sample was recorded. A weighed amount of methanol:water (20:80, v:v; approximately 2 to 3 times the sample weight, such that the homogenate weight:sample weight ratio was approximately 3 to 4) was added and the sample was mixed and homogenized using a probe type homogenizer. Triplicate‐weighed aliquots (approximately 0.2 g) were combusted and analyzed by LSC. The empty treatment vial from each subject was analyzed by adding a weighed amount of methanol to each vial and analyzing duplicate weighed aliquots (approximately 0.5 g) of each extract by LSC. Residual radioactivity recovered from each treatment vial was subtracted from the dose administered to the appropriate subject.
The total radioactivity in blood and plasma was determined by LSC. Nominal sampling time points were used for deriving total radioactivity blood and plasma PK data. […]

[2] = Metabolite profiles in plasma (UPLC, radioactivity detection, MS); format: in vivo, human
Procedure: To the thawed plasma samples (1.5 mL plasma/ time points) two volumes of ice‐cold acetonitrile:ethanol:acetic acid (90:10:0.1, v/v) were added, followed by vortex mixing (10 min) and sonication (10 min). After centrifugation, the supernatants (4.2 mL) were evaporated to near dryness under a gentle stream of nitrogen on a TurboVap LV (Zymark Corp.). The residues were reconstituted in 80 μL of methanol:water:acetic acid (50:50:0.1, v/v) and 45 μL were injected into the ultra‐performance liquid chromatography (UPLC) system with off‐line radioactivity detection.
Characterization and quantification of the metabolites of encorafenib in select human plasma and excreta samples were performed by the Department of DMPK (Drug Metabolism and Pharmacokinetics) at the Novartis Institutes for Biomedical Research (East Hanover, NJ, USA) using liquid chromatography (LC) coupled to radioactivity detectors and mass spectrometers (MS).
The analytical system consisted of a Waters ACQUITY UPLC system (Waters), equipped with a Phenomenex Luna PFP column (3 μm, 4.6 × 150 mm) (Phenomenex) and a guard column of the same phase, both maintained at a temperature of 30°C. The mobile phases consisted of 10 mM ammonium acetate containing 0.1% formic acid (v/v) (solvent A) and CH3CN (solvent B). The total run time was 80 min. A linear gradient elution program was used with a flow rate of 1 mL/min as described in Table 1.
The UPLC effluent was split 4:1, with […] of the total flow introduced to the mass spectrometer for mass spectral analysis and the remaining flow used for radioactivity detection.
For off‐line radioactivity detection, the eluant was collected into 96‐well Lumaplate (Packard Instrument Co) microplates using a Collect Pal fraction collector (Leap Technologies) with a collection time of 10 seconds per well. The LumaPlates were sealed after drying and counted for 10–50 min per well on a Packard Topcount microplate scintillation counter. The structural characterization of metabolites was carried out using the above UPLC profiling method coupled to a two‐channel Z‐spray (LockSprayTM) time‐of‐flight mass spectrometer (Synapt MS). Leucine enkephalin was used as the mass reference standard for exact mass measurements and was delivered via the second spray channel at a flow rate of 5 μL/minute. The mass spectrometer was operated at a resolution of ~10 000 m/ΔmFWHM with spectra being collected from 100 to 1000 amu. The ionization technique employed was positive electrospray. The sprayer voltage was kept at 3100 V and the sampling cone voltage was kept at a potential of 20 V. For the time‐of‐flight MS/MS experiments, trap energies of 25 to 45 eV and transfer energy of 15 eV were used with argon as the collision gas.
All radioactivity data were transferred to Laura software (version 4.2.2.24, Lab Logic Ltd, UK) to generate and integrate radio‐chromatograms. Radioactive peaks for quantitative analysis were manually selected from the plots. The radioactivity in the region encompassing the beginning and end of the peak was summed. All further calculations were based on radioactivity.
The percent of radioactivity (%RA) in a particular peak, Z, was calculated as follows in Equation (1): (1) %RAinZ=DPMin PeakZ/totalDPMinallintegrated peaksx100
The concentration or amount of each component was calculated as % RA (expressed as a fraction) multiplied by the total concentration of radioactivity in plasma, or the percent of dose in the excreta.

CYP2C19 = tested on: CYP2C19; design: method as in earlier work; conditions: cited from earlier work

Cmax, total radioactivity ([1]; Mean (SD)): 2170 (107) ngEq/mL
T1/2, total radioactivity ([1]; Mean (SD)): 5.1 h and 5.1 (1.30) h
Cmax, total radioactivity ([1]; Median (Minimum–Maximum)): 2190 (2020–2330) ngEq/mL
T1/2, total radioactivity ([1]; Median (Minimum–Maximum)): 4.5 (7.1–4.3) h
Tmax, total radioactivity ([1]; Median (Minimum–Maximum)): 1.3 h
Mean (range) Circulating Radioactivity in Plasma Based on AUC0-24 ([2]; 100 mg oral [14C] encorafenib): 4400 (2340–7140) ngEq/mL*h
Mean (range) Circulating Radioactivity in Plasma Based on AUC0-24 (%) ([2]; M12.8 value is sum of M12.8 and M13.2): 27.5%
Mean (range) Circulating Radioactivity in Plasma Based on AUC0-24 (%) ([2]; M12.8 value is sum of M12.8 and M13.2, listed as Encorafenib (LGX818)): 27.5 (17.9–36.4) %
SMILES: COC(=O)N[C@@H](C)CNc1nccc(-c2cn(C(C)C)nc2-c2cc(Cl)cc(NS(C)(=O)=O)c2F)n1 [encorafenib]
Contribution of CYP2C19 to metabolism (CYP2C19): 16%
